Test results: patent US7598255B2 (Janssen Pharmaceutica NV, priority 2005, dated 2009)
Structures can show the parent of a compound that is named as a salt.

Columns and labels:
rat 5-HT7a receptor = rat 5-HT7a receptor (Rattus norvegicus, UniProt P32305); test: Affinity for 5-HT7 receptor binding sites, radioligand binding with [3H]5-CT; settings: membranes of HEK-293 cells with rat 5-HT7a, 1 nM [3H]5-CT
Description: The affinity of the compounds described in this invention for the 5-HT7 receptor binding site was evaluated by single competition radioligand binding assay. The assay was performed on membranes prepared from HEK-293 cells that had been subjected to stable transfection with the rat 5-HT7a receptor (GB: NM022938). Cells were scraped from the culture plates, suspended in Tris-HCl 50 mM pH 7.5 and collected through centrifugation (1000 rpm for 5 min). The cell pellets were homogenized (Polytron, 15 s, setting 5) in 50 mM Tris-HCl (pH 7.5), 5 mM EDTA. Following centrifugation (15,000 rpm for 25 min), membranes (135 μg protein/mL) were resuspended in the same buffer and incubated for 60 min at RT with 1 nM [^3H]5-CT in the presence of increasing concentration of test compounds. Nonspecific binding was defined in the presence of 10 μM 5-HT. Incubation was stopped by rapid filtration using the cell harvester (Packard). Radioactivity was counted in a TopCount-NXT (Packard). Experiments were conducted in triplicate.

5-HT2B receptor = 5-HT2B receptor (Homo sapiens, UniProt P41595); test: Affinity for 5HT2 receptor binding sites, h5-HT2B, [3H]mesulergine; settings: CHO h5-HT2B membranes
Chain of 5-HT2B receptor (P41595 whole entry): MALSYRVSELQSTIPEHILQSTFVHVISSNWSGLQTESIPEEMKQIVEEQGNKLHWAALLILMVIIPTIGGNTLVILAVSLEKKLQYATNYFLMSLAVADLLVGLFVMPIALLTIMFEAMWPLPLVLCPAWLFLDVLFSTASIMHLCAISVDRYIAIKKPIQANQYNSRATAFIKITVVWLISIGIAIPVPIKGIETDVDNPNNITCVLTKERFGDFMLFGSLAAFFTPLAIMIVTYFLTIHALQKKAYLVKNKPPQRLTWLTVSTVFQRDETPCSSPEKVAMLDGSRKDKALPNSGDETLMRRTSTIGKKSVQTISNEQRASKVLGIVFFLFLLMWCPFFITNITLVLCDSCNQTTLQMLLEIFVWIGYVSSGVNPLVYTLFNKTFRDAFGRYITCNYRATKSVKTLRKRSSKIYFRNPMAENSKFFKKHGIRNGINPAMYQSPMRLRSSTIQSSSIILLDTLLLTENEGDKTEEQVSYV
Description: Sigmoidal inhibition curves were generated and fitted by nonlinear regression analysis (GraphPad Prism).
Receptor binding was performed using the human recombinant 5-HT2A (GB: X57830), 5-HT2B (GB: Z36748) and 5-HT2C (GB: M81778) receptors. The affinity of the compounds for the 3 different human 5-HT2 receptor subtypes was evaluated by competitive radioligand binding assays using [^3H]ketanserin (h5-HT2A) or [^3H]mesulergine (h5-HT2B and h5-HT2C). The assays were performed on membranes prepared from NIH3T3 stably transfected with h5-HT2A or CHO stably transfected with h5-HT2B and h5-HT2C.

[1] = target: T1, human recombinant 5-HT2C receptor (Homo sapiens, UniProt P28335); test: Affinity for 5HT2 receptor binding sites, h5-HT2C, [3H]mesulergine; settings: CHO h5-HT2C membranes
T1 sequence (P28335 33-458): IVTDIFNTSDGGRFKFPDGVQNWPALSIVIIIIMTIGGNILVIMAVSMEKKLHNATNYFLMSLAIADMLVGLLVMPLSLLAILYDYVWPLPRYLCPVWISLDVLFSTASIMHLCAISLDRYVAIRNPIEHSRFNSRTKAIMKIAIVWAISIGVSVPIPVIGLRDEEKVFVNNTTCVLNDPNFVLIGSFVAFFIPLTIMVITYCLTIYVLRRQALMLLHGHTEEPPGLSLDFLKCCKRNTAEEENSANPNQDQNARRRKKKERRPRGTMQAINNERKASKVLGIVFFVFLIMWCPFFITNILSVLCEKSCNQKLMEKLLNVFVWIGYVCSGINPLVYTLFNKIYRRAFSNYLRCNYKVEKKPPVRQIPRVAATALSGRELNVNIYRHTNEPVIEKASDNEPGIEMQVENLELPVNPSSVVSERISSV

5-HT2A receptor = 5-HT2A receptor (Homo sapiens, UniProt P28223); test: Affinity for 5-HT2A receptor binding sites, radioligand binding with [3H]ketanserin; settings: read-out: Ki 5-HT2A, rat cortex membranes (assay 2) or NIH3T3 h5-HT2A membranes (assay 3), table does not say which

Chain of rat 5-HT7a receptor (P32305 whole entry): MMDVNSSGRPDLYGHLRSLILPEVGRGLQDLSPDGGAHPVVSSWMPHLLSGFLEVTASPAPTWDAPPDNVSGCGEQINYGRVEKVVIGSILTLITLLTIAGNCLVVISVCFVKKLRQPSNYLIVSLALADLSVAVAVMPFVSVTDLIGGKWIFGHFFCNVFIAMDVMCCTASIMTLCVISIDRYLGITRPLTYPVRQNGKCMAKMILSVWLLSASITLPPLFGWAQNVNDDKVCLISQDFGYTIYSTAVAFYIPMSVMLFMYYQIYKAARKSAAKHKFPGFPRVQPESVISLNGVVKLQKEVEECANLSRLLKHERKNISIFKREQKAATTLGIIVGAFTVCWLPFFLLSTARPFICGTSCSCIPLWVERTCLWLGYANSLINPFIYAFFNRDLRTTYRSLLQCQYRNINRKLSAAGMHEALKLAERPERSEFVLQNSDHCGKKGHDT

Row | SMILES | Ki (rat 5-HT7a receptor) [nM] | Ki (5-HT2B receptor) [nM] | Ki [1] [nM] | Ki (5-HT2A receptor) [nM]
1 | Cc1ccc(-c2cc(CN(C)C)nc(Cc3ccccc3)n2)cc1 [Example 112, (2-Benzyl-6-p-tolyl-pyrimidin-4-ylmethyl)-dimethyl-amine] | > 10000 | > 10000 | > 10000 | 130
2 | CC(C)c1nc(-c2ccsc2)c2c(n1)C(C)CNC2 (stereo not shown) [Example 105, 2-Isopropyl-8-methyl-4-thiophen-3-yl-5,6,7,8-tetrahydro-pyrido[4,3-d]pyrimidine] | > 10000 | 100 | 400 | 40
3 | CC(C)Cc1nc2c(c(-c3cccs3)n1)CNCC2 [Example 35, 2-Isobutyl-4-thiophen-2-yl-5,6,7,8-tetrahydro-pyrido[4,3-d]pyrimidine] | 500 | 400 | 2000 | 70
4 | CCC(C)c1nc2c(c(-c3ccc(OC)cc3)n1)CNCC2 (stereo not shown) [Example 44, 2-sec-Butyl-4-(4-methoxy-phenyl)-5,6,7,8-tetrahydro-pyrido[4,3-d]pyrimidine] | > 10000 | 500 | 1000 | 400
5 | Cc1cc(-c2nc(CC(C)C)nc3c2CNCC3)ccc1F [Example 39, 4-(4-Fluoro-3-methyl-phenyl)-2-isobutyl-5,6,7,8-tetrahydro-pyrido[4,3-d]pyrimidine] | > 10000 | > 10000 | > 10000 | 150
6 | CC(C)c1nc2c(c(-c3ccc(F)cc3)n1)CCN(Cc1ccccc1)C2 [Example 74, 7-Benzyl-4-(4-fluoro-phenyl)-2-isopropyl-5,6,7,8-tetrahydro-pyrido[3,4-d]pyrimidine] | > 10000 | 1900 | > 10000 | 47
7 | CC(C)c1nc2c(c(-c3ccc(C(F)(F)F)cc3)n1)CNCC2 [Example 32, 2-Isopropyl-4-(4-trifluoromethyl-phenyl)-5,6,7,8-tetrahydro-pyrido[4,3-d]pyrimidine] | > 10000 | > 10000 | > 10000 | 2000
8 | CC(C)c1nc2c(c(-c3ccccc3Oc3ccccc3)n1)CNCC2 [Example 33, 2-Isopropyl-4-(2-phenoxy-phenyl)-5,6,7,8-tetrahydro-pyrido[4,3-d]pyrimidine] | > 10000 | > 10000 | > 10000 | > 10000
9 | CC(C)c1nc(-c2ccc(C(F)(F)F)cc2)c2c(n1)C(C)CNC2 (stereo not shown) [Example 104, 2-Isopropyl-8-methyl-4-(4-trifluoromethyl-phenyl)-5,6,7,8-tetrahydro-pyrido[4,3-d]pyrimidine] | > 10000 | 500 | 3000 | 700
10 | CCC(C)c1nc2c(c(-c3ccc(C)cc3)n1)CNCC2 (stereo not shown) [Example 4, 2-sec-Butyl-4-p-tolyl-5,6,7,8-tetrahydro-pyrido[4,3-d]pyrimidine hydrochloride] | > 10000 | 250 | 200 | 20
11 | CCC(C)c1nc2c(c(-c3ccccc3F)n1)CNCC2 (stereo not shown) [Example 42, 2-sec-Butyl-4-(2-fluoro-phenyl)-5,6,7,8-tetrahydro-pyrido[4,3-d]pyrimidine hydrochloride] | > 10000 | > 10000 | > 10000 | 120
12 | CC(C)c1nc2c(c(-c3ccc(F)cc3)n1)CN(C)CC2 [Example 22, 4-(4-Fluoro-phenyl)-2-isopropyl-6-methyl-5,6,7,8-tetrahydro-pyrido[4,3-d]pyrimidine] | > 10000 | 500 | 1300 | 32
13 | CC(C)c1nc2c(c(-c3ccccc3F)n1)CNCC2 [Example 26, 4-(2-Fluoro-phenyl)-2-isopropyl-5,6,7,8-tetrahydro-pyrido[4,3-d]pyrimidine] | > 10000 | > 10000 | > 10000 | 300
14 | CC(C)c1nc2c(c(-c3ccccc3)n1)CCN(C)C2 [Example 85, 2-Isopropyl-7-methyl-4-phenyl-5,6,7,8-tetrahydro-pyrido[3,4-d]pyrimidine] | > 10000 | 1150 | > 10000 | 82
15 | COc1ccc(-c2nc(Cc3ccccc3)nc3c2CCN(Cc2ccccc2)C3)cc1 [Example 73, 2,7-Dibenzyl-4-(4-methoxy-phenyl)-5,6,7,8-tetrahydro-pyrido[3,4-d]pyrimidine] | > 10000 | > 10000 | > 10000 | 140
16 | CC(C)c1nc(-c2ccsc2)c2c(n1)C(C)CN(Cc1ccccc1)C2 (stereo not shown) [Example 98, 6-Benzyl-2-isopropyl-8-methyl-4-thiophen-3-yl-5,6,7,8-tetrahydro-pyrido[4,3-d]pyrimidine] | > 10000 | > 10000 | > 10000 | > 10000
17 | Cc1nc2c(c(-c3ccc(Cl)cc3)n1)CCNCC2 [Example 51, 4-(4-Chloro-phenyl)-2-methyl-6,7,8,9-tetrahydro-5H-pyrimido[4,5-d]azepine] | > 10000 | 140 | 9000 | 470
18 | N#Cc1ccc(-c2nc(Cc3ccc(F)cc3)nc3c2CNCC3)cc1 [Example 16, 4-[2-(4-Fluoro-benzyl)-5,6,7,8-tetrahydro-pyrido[4,3-d]pyrimidin-4-yl]-benzonitrile] | > 10000 | > 10000 | > 10000 | 2000
19 | CC(C)c1nc(-c2ccc(C(F)(F)F)cc2)c2c(n1)C(C)CN(Cc1ccccc1)C2 (stereo not shown) [Example 96, 6-Benzyl-2-isopropyl-8-methyl-4-(4-trifluoromethyl-phenyl)-5,6,7,8-tetrahydro-pyrido[4,3-d]pyrimidine] | > 10000 | > 10000 | > 10000 | > 10000
20 | CC(C)c1nc2c(c(-c3ccc(F)cc3)n1)CCN(C)C2 [Example 84, 4-(4-Fluoro-phenyl)-2-isopropyl-7-methyl-5,6,7,8-tetrahydro-pyrido[3,4-d]pyrimidine hydrochloride] | > 10000 | 400 | 5000 | 14
21 | CN1CCc2nc(Cc3ccc(F)cc3)nc(-c3ccc(C#N)cc3)c2C1 [Example 15, 4-[2-(4-Fluoro-benzyl)-6-methyl-5,6,7,8-tetrahydro-pyrido[4,3-d]pyrimidin-4-yl]-benzonitrile] | > 10000 | > 10000 | > 10000 | 1000
22 | Cc1ccc(-c2nc(Cc3ccc(F)cc3)ncc2CN(C)C)cc1 [Example 116, [2-(4-Fluoro-benzyl)-4-p-tolyl-pyrimidin-5-ylmethyl]-dimethyl-amine] | > 10000 | > 10000 | > 10000 | 2000
23 | CC(C)c1nc(-c2ccccc2)c2c(n1)C(C)CN(Cc1ccccc1)C2 (stereo not shown) [Example 95, 6-Benzyl-2-isopropyl-8-methyl-4-phenyl-5,6,7,8-tetrahydro-pyrido[4,3-d]pyrimidine] | > 10000 | > 10000 | > 10000 | 2000
24 | CC(C)c1nc2c(c(-c3cccc(F)c3)n1)CNCC2 [Example 25, 4-(3-Fluoro-phenyl)-2-isopropyl-5,6,7,8-tetrahydro-pyrido[4,3-d]pyrimidine] | > 10000 | > 10000 | > 10000 | 300
25 | Cc1ccc(-c2nc(C(C)C)nc3c2CN(Cc2ccccc2)CC3C)cc1 (stereo not shown) [Example 94, 6-Benzyl-2-isopropyl-8-methyl-4-p-tolyl-5,6,7,8-tetrahydro-pyrido[4,3-d]pyrimidine] | > 10000 | > 10000 | > 10000 | > 10000
26 | CC(C)Cc1nc2c(c(-c3ccc(F)cc3)n1)CNCC2 [Example 37, 4-(4-Fluoro-phenyl)-2-isobutyl-5,6,7,8-tetrahydro-pyrido[4,3-d]pyrimidine] | > 10000 | 400 | 1000 | –
27 | Fc1ccc(-c2nc(C3CC3)nc3c2CNCC3)cc1 [Example 7, 2-Cyclopropyl-4-(4-fluoro-phenyl)-5,6,7,8-tetrahydro-pyrido[4,3-d]pyrimidine] | > 10000 | – | 900 | 25
28 | CNCCc1cc(-c2ccc(F)cc2)nc(C(C)(C)C)n1 [Example 166, {2-[2-tert-Butyl-6-(4-fluoro-phenyl)-pyrimidin-4-yl]-ethyl}-methyl-amine] | – | 18 | 170 | 11
